The subject of data set [1] is MolM14. The data set can be described thus: XTT cell viability assay, MolM14. The class given is cell-based, human. As to conditions: Homo sapiens, MOLM-14; XTT assay (48 h); standard deviation of 10%; read-out: EC50 (μM) AML MolM14. On the procedure: (§1) Fifty microliters of sodium 3′-[1-phenylaminocarbonyl)-3,4-tetrazolium]-bis(4-methoxy-6-nitro) benzene sulfonic acid hydrate (XTT) reagent was added to each well. The assay is based on the cleavage of the yellow tetrazolium salt XTT to form an orange formazan dye by metabolically active cells. The absorbance of the formazan product, reflecting cell viability, was measured at 490 nm. Each assay was performed in quadruplicate.
(§2) Compounds #1-#14 have been assayed as potential anti-proliferative agents against a panel of human breast head and neck, and kidney tumor cells and hematological malignancies, selected on the basis of their aggressiveness (e.g. incurable triple-negative breast cancer cells: MDA-MB-231; kidney ccRCC cells: RCC4, A498 and 786-O and 786R; head and neck cancer cells: CAL33, CAL33RR, CAL27, and CAL27RR; acute myeloid cell lines: OCI-AML2, OCI-AML3, MolM13, and MolM14; myelodysplastic cell line: SM1; and chronic myeloid cell line: CML). All these cell lines share as common denominator the expression of CXCR1 and CXCR2. The EC50 values have been measured by a XTT colorimetric assay, and compared to those of SB-225002, used as a reference; the results are listed in Table 1.
For orientation: Formazan colour is commonly taken as a measure of viable cells.

Data set [2] relates to K562. The data set is described as follows: XTT cell viability assay, K562. As to conditions: Homo sapiens, K562; XTT assay (48 h); standard deviation of 10%; read-out: EC50 (μM) CML K562. Format: cell-based, human. On the procedure: as §1, §2
Data set [3] relates to 786-O and 786-R cells. The data set can be described thus: Clonogenicity (colony formation) assay, RCC cells. As to conditions: 1 μM, 10 days. The class given is cell-based, human. On the procedure:
G: Clonogenicity assays: RCC cells ([…] and 786-R) were treated with compound #1 or sunitinib (1 μM) and colored with Giemsa blue after 10 days (representative results of an experiment repeated trice);
Cells (5000 cells per condition) were treated or not with compound #1 and sunitinib, and cisplatin. Colonies were detected after 10 days of culture. Cells were then washed, fixed at room temperature for 20 min with 3% paraformaldehyde (PFA; Electron Microscopy Sciences) and colored by GIEMSA (Sigma)

Data set [4] has as its system primary RCC cells (TF and CC). The data set can be described thus: XTT cell viability and colony assay, primary RCC cells. The settings on record: Homo sapiens, XTT 48 h, read-out: EC50 proliferation of primary kidney tumor cells. Format: cell-based. On the procedure:
(§3) A: Primary RCC cells (TF and CC) and normal renal cells (15S) were treated with compound #1 (1 to 5 μM) for 48 h. Cell viability was measured by XTT assays;
B: Primary RCC cells (TF and CC) were treated with compound #1 (1 or 2.5 μM) and colored with Giemsa blue after 10 days (representative results of an experiment repeated trice);
as §1
(§4) The biological effects of compound #1 on primary RCC tumors cells and normal renal cells harvested from patients suffering from kidney cancer have been explored (FIG. 4).

The subject of data set [5] is primary normal kidney cells (15S). The data set can be described thus: XTT cell viability, primary normal kidney cells. Format: cell-based, human. As to conditions: up to 5 μM, XTT 48 h. On the procedure: as §3, §1, §4
Data set [6] relates to TF and CC cells. The data set can be described thus: FACS apoptosis markers, primary RCC cells. Format: cell-based, human. As to conditions: 1 μM, 48 h. The protocol:
(§5) C: Primary RCC cells (TF and CC) and normal renal cells (15S) were treated with compound #1 (1 to 5 μM) for 48 h. Cells were stained with the PI/annexin-V-fluos staining kit according to the manufacturer's indications. Histograms show both annexin-V+/PI− cells (open bars) and annexin-V+/PI+ cells (filled bars). *P<0.05; **P<0.01; ***P<0.001.
(§6) Apoptosis analysis: After stimulation, cells were washed with ice-cold PBS and were stained with the annexin-V-fluos staining kit (Roche, Meylan, France) according to the manufacturer's procedure. Fluorescence was measured by using the FL2 (AV) and FL3 (propidium iodide, PI) channels of a fluorescence-activated cell sorter apparatus (Calibur cytometer).

Data set [7] has as its system healthy cells 15S. The data set is described as follows: FACS apoptosis markers, normal renal cells. As to conditions: 48 h. The class given is cell-based, human. The protocol:
as §5, §6

Data set [8] concerns the target T1, CXCR2 (Homo sapiens, UniProt P25025).
T1 construct: endogenous in cells; host or cells: HuVEC (healthy endothelial cells)
The data set is described as follows: CXCR2 membrane level by flow cytometry after CXCL8 stimulation in HuVEC. The class given is cell-based. The settings on record: 2.5 μM, CXCL8 25 ng/ml 1 h. The protocol: A: HuVEC were stimulated with 25 ng/ml CXCL8 during 1 h. Membrane-associated CXCR2 protein levels were quantified by flow cytometry;
CXCR2 measurement: After stimulation, cells were washed with PBS and were stained with the CXCR2-PE antibody (Miltenyi) for 30 min at room temperature. Fluorescence was measured by using the FL2 (PE) channels of a fluorescence-activated cell sorter apparatus (Calibur cytometer).
Since CXCR2 is internalized in endothelial cells when activated by CXCL-8, the effect of compound #1 has been investigated on CXCR2 recycling on HuVEC cells.

Data set [9] deals with CXCL7-dependent HuVEC migration. The data set can be described thus: Boyden chamber migration assay, CXCL7-dependent. The class given is cell-based. As to conditions: CXCL7 (50 ng/ml), 24 hr. The protocol:
(§7) CXCL7 or VEGFA-stimulated chemotaxis assays were monitored using modified Boyden chambers containing polycarbonate membranes (8-μm pores, Transwell; Corning, Sigma). Cells were seeded on the upper side of the filters and chambers were placed on 24-well plates containing CXCL7 (50 ng/ml) or VEGFA (50 ng/ml). Cells were allowed to migrate for 24 hr at 37° C. in 5% CO2. Migratory cells on the lower membrane surface were fixed in 3% paraformaldehyde, stained with 0.1% crystal violet.

The subject of data set [10] is VEGFA-dependent HuVEC migration. The data set is described as follows: Boyden chamber migration assay, VEGFA-dependent. The class given is cell-based. The settings on record: VEGFA (50 ng/ml), same concentration. The protocol: as §7
Data set [11] is described as follows: Pharmacokinetics after oral gavage in mice. Format: in vivo. As to conditions: oral gavage 50 mg/Kg. On the procedure:
Compound #1 was then formulated at 7.6 mg/mL, and administrated by oral gavage at 50 mg/Kg (n=12 mice) and pharmacokinetic parameters have been measured (Table 2).

The subject of data set [12] is DAOY and HD-MB03 cells. The data set can be described thus: Proliferation test, medulloblastoma cells. Format: cell-based. As to conditions: 1 μM, cell counts days 1 to 8, vs DMSO. The protocol:
FIG. 7: Inhibition of proliferation of medulloblastoma cells by compound #1. Cells were treated or not with 1 μM compound #1 for the indicated days. Cells were counted at the indicated days. * p<0.05; ** p<0.01; *** p<0.001.
1500 DAOY and HD-MB03 cells were seeded in a 6-well plate with or without treatment (1 μM of compound #1 or DMSO as control “CONT”), at 37° C. in a 5% CO2 incubator. Cells were dissociated using trypsone 1X-EDTA (Gibco® Life Technologies) and were counted with Coulter Beckman® counter (Villepinte) at days 1, 4, 6, 7, and 8. Each assay was performed in triplicate.

Broadly, the half-life is how long it takes for the measured level to halve. One may read the AUC as concentration integrated over time. What is called Tmax is the time at which the peak concentration occurs.

Where only a bound is given, the exact number is not on record here.

T1 sequence (P25025 whole entry): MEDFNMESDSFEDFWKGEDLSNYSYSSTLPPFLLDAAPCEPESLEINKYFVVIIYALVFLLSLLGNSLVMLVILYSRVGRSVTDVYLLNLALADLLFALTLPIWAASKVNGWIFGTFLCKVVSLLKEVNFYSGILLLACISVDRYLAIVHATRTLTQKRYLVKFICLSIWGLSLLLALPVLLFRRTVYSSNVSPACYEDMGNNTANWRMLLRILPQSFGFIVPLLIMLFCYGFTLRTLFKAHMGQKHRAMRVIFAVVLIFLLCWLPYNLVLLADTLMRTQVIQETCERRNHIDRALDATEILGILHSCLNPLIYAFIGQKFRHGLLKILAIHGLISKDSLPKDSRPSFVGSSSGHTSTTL

With `O=C(Nc1cccc(Cl)c1)Nc1nc2ccc([N+](=O)[O-])cc2s1` [Compound #1, 1-(3-chlorophenyl)-3-(6-nitrobenzo[d]thiazol-2-yl)urea], the figures for the EC50 in [1], in [2] and in [4] were 4 µM, 2 µM and roughly 2000 nM, respectively. The clonogenicity entry in [3] was “exerts a cytostatic effect”. Further, the “effect on primary normal kidney cells (15S)” value in data set [5] is on record as “no effect”. In [6], the “apoptosis markers in TF and CC cells” value is “puts into exergue the apoptosis markers in TF and CC cells”. For the same compound, in data set [7], the “apoptosis markers in healthy cells 15S” value was “not the case with healthy cells 15S”. The “CXCL-8-dependent internalization of CXCR2” value in data set [8] is on record as “prevents the CXCL-8-dependent internalization of CXCR2”. Further, the “decrease of HuVECs motility” value in [9] is on record as “more than 50%”. Further, the “activity on VEGFA-stimulated HuVEC motility” value in data set [10] is on record as “does not exert any visible activity”. In data set [11] (mouse, in vivo), this compound displayed a half-life greater than 3.17 h. In data set [11] (mouse, in vivo, po, 50 mg/kg, read-out: AUC lastPO (converted)), the AUC was roughly 1420 ng·h/mL. In data set [11], the time to peak (Tmax) was 0.5 h. Besides, in data set [11] (50 mg/kg), the “AUC lastPO” value stood at 84965 ± 9367 ng·min/mL. Further, the “proliferation of DAOY and HD-MB03 cells” value in [12] is given as “significatively reduces the proliferation”.

(Values after patent US20210380547A1, “UREA DERIVATIVES FOR TREATING AND/OR PREVENTING CANCER” (CENTRE NATIONAL DE LA RECHERCHE SCIENTIFIQUE, priority 2018, published 2021).)
